# Data reported in patent publication US11518765B2, “Substituted pyrimidine derivatives useful in the treatment of autoimmune diseases” (THE PROVOST, FELLOWS, FOUNDATION SCHOLARS, AND THE OTHER …, priority 2015, dated 2022).
# How the values were obtained:
# Type in all cases: in vivo, mice (C57BL/6)
# [1] = tested on: chronic monophasic EAE disease in mice; assay: motor coordination and hind-limb strength: ability of EAE mice to cross a horizontal bar; conditions: EAE diseased mice, within 4 treatments; FIG. 3
# Procedure: (§1) To assess the potential of these compounds in vivo, a chronic monophasic EAE disease in mice was induced before treatment with the new chemical entity (NCE). EAE Disease was induced in 8-10 week old female mice (C57BL/6) by subcutaneous (s.c.) injection of 200 μl emulsion containing 150 μg […] peptide (Genscript) in Complete Freund's Adjuvant (CFA; containing 5 mg/ml heat-inactivated Mycobacterium tuberculosis). On the same day, mice were administered 500 ng Pertussis Toxin (Kaketsuken, Japan) intraperitoneally (i.p.) and again two days later. Disease severity was recorded every 24 hours: 0-Normal; 1-flaccid tail; 2-imparied/wobbly gait; 3-complete hind limb weakness; 4-hind limb and forelimb paralysis; 5-moribund state/dead. Protocol is based on the Nature Protocols for Active induction of experimental allergic encephalomyelitis, which includes the scoring methodology: • Stromnes I M, Goverman J M (2006) Active induction of experimental allergic encephalomyelitis. Nat Protoc. 1(4):1810-9.
# (§2) This contrasts with the sustained drop in body weight of non-treated EAE diseased animals to a level 86.4% that of controls at 21 dpi (17.8 grams versus 20.6 grams). Motor coordination and hind-limb strength were also evaluated by the ability of mice to cross a horizontal bar (FIG. 3). Non-diseased animals crossed the bar with an average time of 4.3±0.57 seconds.
# [2] = body weight of EAE diseased mice; conditions: treated EAE animals, FIG. 2
# Procedure: as §1, §2
# [3] = tested on: chronic monophasic EAE disease in mice; assay: chronic monophasic EAE disease in mice, EAE score (disease severity); conditions: FIG. 1
# Procedure: as §1
# The EAE score relates to an assessment of disease progression with respect to issues like tail paralysis and limb paralysis, a higher score is a worse condition. A score of 1 indicates decreased tail tone, a score of 2 indicates hind leg weakness (paraparesis), a score of 3 indicates hind limb paralysis and/or incontinence. Note that the untreated animals have a continuous and progressive worsening of disease.
smiles,measurement,setting,value
"Cl.Nc1nc2[nH]cc(CNCCCc3ccccc3)c2c(=O)[nH]1 [Compound I, N-((2-amino-4-oxo-4,7-dihydro-3H-pyrrolo[2,3-d]pyrimidin-5-yl)methyl)-3-phenylpropan-1-aminium chloride]",performance crossing a horizontal bar,[1],fully restored the performance of EAE diseased mice to control levels
same,body weight,"[2]; 21 dpi, controls 20.6 grams",19.9 grams
same,body weight level relative to controls,[2]; 21 days post inoculation (dpi),96.6%
same,EAE scoring after treatment,"[3]; 30 mg/kg, i.p., after 4 daily treatments",disease free
same,time to reversal of symptoms (EAE score),"[3]; highest dosage given, 30 mg/kg, i.p.",≤ 24 h
same,disease progression (EAE score),"[3]; lower doses, animals slower to respond",halted and reversed
